Structures can show the parent of a compound that is named as a salt.

Experiment [1] addresses T1, recombinant human cIAP1-BIR3 protein (Homo sapiens, UniProt Q13490).
T1 construct: recombinant human cIAP1-BIR3 protein; purchased Reaction biology APT-11-370
Put plainly: Recombinant human c-IAP1-BIR3 biochemical assay (HTRF, peptide displacement). The settings on record: 1.2 nM cIAP1-BIR3, 3 nM AbuRPF-K(5-Fam)-NH2 peptide, read-out: Protein binding IC50 (nM) c-IAP1. The essentials: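 1.2 nM cIAP1-BIR3 preincubated 1 h at room temperature with compound (10 points, 4-fold, top 10 uM) in 20 mM HEPES pH 7.5, 50 mM NaCl, 1 mM DTT; 3 nM AbuRPF-K(5-Fam)-NH2 then added for 1 h, then anti-6His Tb cryptate for 1 h. 520/490 nm ratio; IC50 by four-parameter logistic fit.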
(In general: In TR-FRET formats the signal depends on donor and acceptor labels being close together.)

Experiment [2] concerns the target T2, recombinant human cIAP2-BIR3 protein (Homo sapiens, UniProt Q13489).
T2 construct: recombinant human cIAP2-BIR3 protein; purchased Reaction biology APT-11-372
The experiment in a line: Recombinant human c-IAP2-BIR3 biochemical assay (HTRF, peptide displacement). The settings on record: 3.7 nM cIAP2-BIR3, 3.7 nM AbuRPF-K(5-Fam)-NH2 peptide, read-out: Protein binding IC50 (nM) c-IAP2. The essentials: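 3.7 nM protein pre-incubated 1 h at room temperature with compounds (top 10 uM, 4-fold, 10 points) in 20 mM HEPES pH 7.5, 50 mM NaCl, 0.005% Tween-20, 1 mM DTT. Then 3.7 nM AbuRPF-K(5-Fam)-NH2 for 1 h, then anti-6His Tb cryptate 1 h. IC50 from 520/490 nm HTRF ratio, four-parameter logistic fit.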

Experiment [3] concerns the target T3, recombinant human XIAP-BIR3 protein (Homo sapiens, UniProt P98170).
T3 construct: recombinant human XIAP-BIR3 protein; purchased Reaction biology APT-11-374
The experiment in a line: Recombinant human XIAP-BIR3 biochemical assay (HTRF, peptide displacement). The settings on record: 3.7 nM XIAP-BIR3, 7.6 nM AbuRPF-K(5-Fam)-NH2 peptide, read-out: Protein binding IC50 (nM) XIAP. In short, it runs like this:
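3.7 nM His-tagged XIAP-BIR3 was preincubated 1 h RT with compound (top 10 µM, 4-fold, 10 points) in 20 mM HEPES pH 7.5, 50 mM NaCl, 0.005% Tween-20, 1 mM DTT. 7.6 nM AbuRPF-K(5-Fam)-NH2 peptide was then added, followed by anti-6His Tb cryptate, 1 h each. HTRF 520/490 nm ratio; four-parameter logistic IC50.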

T2 sequence (Q13489 238-349 limits assumed): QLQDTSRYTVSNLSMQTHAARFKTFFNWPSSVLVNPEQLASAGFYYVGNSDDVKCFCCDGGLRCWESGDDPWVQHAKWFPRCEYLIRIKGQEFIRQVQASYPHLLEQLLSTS
T3 sequence (P98170 241-356 limits assumed): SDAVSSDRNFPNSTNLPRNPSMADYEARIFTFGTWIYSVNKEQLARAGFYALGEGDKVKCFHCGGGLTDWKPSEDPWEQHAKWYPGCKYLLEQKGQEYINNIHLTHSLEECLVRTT
T1 sequence (Q13490 253-363 limits assumed): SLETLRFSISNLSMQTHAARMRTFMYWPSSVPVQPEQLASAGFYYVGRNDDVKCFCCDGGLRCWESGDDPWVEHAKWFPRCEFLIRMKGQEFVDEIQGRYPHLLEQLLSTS

By IC50 is commonly meant the concentration needed to halve the response being measured. In the case of `C[C@@H]1CN(CC(=O)N2CCOc3nc(C(N)=O)c(Cc4ccc(F)cc4)cc32)[C@@H](CN2CCOC[C@H]2C)CN1` [Compound 3, 7-(4-fluorobenzyl)-1-(2-((2R,5R)-5-methyl-2-(((R)-3-methylmorpholino)methyl)piperazin-1-yl)acetyl)-2,3-dihydro-1H-pyrido[2,3-b][1,4]oxazine-6-carboxamide formate], the values for the 50% inhibitory concentration (IC50) in experiment [1], in experiment [2] and in experiment [3] were 1.5 nM, 3.2 nM and 23 nM, respectively.
As to `C[C@@H]1CN(CC(=O)N2c3cc(Cc4ccc(F)cc4)cnc3OC[C@@H]2C2CC2)[C@@H](CN2[C@H](C)COC[C@H]2C)CN1` [Compound 27, 1-((S)-2-cyclopropyl-7-(4-fluorobenzyl)-2,3-dihydro-1H-pyrido[2,3-b][1,4]oxazin-1-yl)-2-((2R,5R)-2-(((3R,5R)-3,5-dimethylmorpholino)methyl)-5-methylpiperazin-1-yl)ethan-1-one], the IC50 stood at 0.2 nM in experiment [1], 0.5 nM in experiment [2] and 14 nM in experiment [3].
The matching figures for `C[C@@H]1CN(CC(=O)N2c3cc(Cc4ccc(F)cc4)c(C(=O)NC[C@@H]4CCOC4)nc3OC[C@@H]2C)[C@@H](CN2[C@H](C)COC[C@H]2C)CN1` [Compound 95, (S)-1-(2-((2R,5R)-2-(((3R,5R)-3,5-dimethylmorpholino)methyl)-5-methylpiperazin-1-yl)acetyl)-7-(4-fluorobenzyl)-2-methyl-N—(((S)-tetrahydrofuran-3-yl)methyl)-2,3-dihydro-1H-pyrido[2,3-b][1,4]oxazine-6-carboxamide]: 0.19 nM, 0.25 nM and 2.3 nM.
As to `C[C@@H]1CN(CC(=O)N2c3cc(Cc4ccc(F)cc4)c(NC4CC4)nc3OC[C@@H]2C)[C@@H](CN2[C@H](C)COC[C@H]2C)CN1` [Compound 110], the IC50 in experiment [1] stood at 0.36 nM; in experiment [2], 0.75 nM; in experiment [3] it was 11.9 nM.
Regarding `C[C@@H]1CN(CC(=O)N2c3cc(Cc4ccc(F)cc4)cnc3OC[C@H]2C)[C@@H](CN2CCOC[C@H]2C)CN1` [Compound 19B, 1-((R)-7-(4-fluorobenzyl)-2-methyl-2,3-dihydro-1H-pyrido[2,3-b][1,4]oxazin-1-yl)-2-((2R,5R)-5-methyl-2-(((R)-3-methylmorpholino)methyl)piperazin-1-yl)ethan-1-one], the 50% inhibitory concentration (IC50) in experiment [1] was found to be 6.4 nM; in experiment [2], 27 nM; in experiment [3], 33 nM.
On to `C[C@@H]1CN(CC(=O)N2c3cc(Cc4ccc(F)cc4)c(C(N)=O)nc3OC[C@@H]2C)[C@@H](CN2CCOCC23CC3)CN1` [Compound 88, (S)-1-(2-((2R,5R)-2-((7-oxa-4-azaspiro[2.5]octan-4-yl)methyl)-5-methylpiperazin-1-yl)acetyl)-7-(4-fluorobenzyl)-2-methyl-2,3-dihydro-1H-pyrido[2,3-b][1,4]oxazine-6-carboxamide], for which the IC50 in experiment [1] turned out to be 0.35 nM; in experiment [2], 0.63 nM; in experiment [3], 12.4 nM.
Consider `C[C@@H]1CN(CC(=O)N2CCOc3nc(C(F)(F)F)c(Cc4ccc(F)cc4)cc32)[C@@H](CN2CCOC[C@H]2C)CN1` [Compound 7, 1-(7-(4-fluorobenzyl)-6-(trifluoromethyl)-2,3-dihydro-1H-pyrido[2,3-b][1,4]oxazin-1-yl)-2-((2R,5R)-5-methyl-2-(((R)-3-methylmorpholino)methyl)piperazin-1-yl)ethan-1-one], for which the results for the 50% inhibitory concentration (IC50) in experiment [1], in experiment [2] and in experiment [3] were 1.3 nM, 6.8 nM and 99 nM, respectively.
With `C[C@@H]1CN(CC(=O)N2c3cc(Cc4ccc(F)cc4)c(C(=O)N4CCOCC4)nc3OC[C@@H]2C)[C@@H](CN2[C@H](C)COC[C@H]2C)CN1` [Example 72, 2-((2R,5R)-2-(((3R,5R)-3,5-dimethylmorpholino)methyl)-5-methylpiperazin-1-yl)-1-((S)-7-(4-fluorobenzyl)-2-methyl-6-(morpholine-4-carbonyl)-2,3-dihydro-1H-pyrido[2,3-b][1,4]oxazin-1-yl)ethan-1-one], the concentration for half-maximal inhibition (IC50) was found to be 0.35 nM in experiment [1], 0.42 nM in experiment [2] and 7.6 nM in experiment [3].
Consider `C[C@@H]1CN(CC(=O)N2c3cc(Cc4ccc(F)cc4)cnc3OC[C@@H]2COc2ccccc2)[C@@H](CN2[C@H](C)COC[C@H]2C)CN1` [Compound 40, 2-((2R,5R)-2-(((3R,5R)-3,5-dimethylmorpholino)methyl)-5-methylpiperazin-1-yl)-1-((S)-7-(4-fluorobenzyl)-2-(phenoxymethyl)-2,3-dihydro-1H-pyrido[2,3-b][1,4]oxazin-1-yl)ethan-1-one], for which the 50% inhibitory concentration (IC50) worked out at 0.09 nM in experiment [1], 0.14 nM in experiment [2] and 8.2 nM in experiment [3].
For `C[C@@H]1CN(CC(=O)N2c3cc(Cc4ccc(F)cc4)cnc3OC[C@@H]2Cc2ccccc2)[C@@H](CN2CCOC[C@H]2C)CN1` [Compound 29, 1-((S)-2-benzyl-7-(4-fluorobenzyl)-2,3-dihydro-1H-pyrido[2,3-b][1,4]oxazin-1-yl)-2-((2R,5R)-5-methyl-2-(((R)-3-methylmorpholino)methyl)piperazin-1-yl)ethan-1-one] the same measures were 0.24 nM, 0.32 nM and 22 nM.
The matching figures for `C[C@@H]1CN(CC(=O)N2c3cc(Cc4ccc(F)cc4)c(C(=O)N[C@H]4CCOC4)nc3OC[C@@H]2C)[C@@H](CN2[C@H](C)COC[C@H]2C)CN1` [Example 79, (S)-1-(2-((2R,5R)-2-(((3R,5R)-3,5-dimethylmorpholino)methyl)-5-methylpiperazin-1-yl)acetyl)-7-(4-fluorobenzyl)-2-methyl-N—((S)-tetrahydrofuran-3-yl)-2,3-dihydro-1H-pyrido[2,3-b][1,4]oxazine-6-carboxamide]: 0.19 nM, 0.33 nM and 5.2 nM.
With `C[C@@H]1CN(CC(=O)N2c3cc(Cc4ccc(F)cc4)c(C(=O)NC4CCOCC4)nc3OC[C@@H]2C)[C@@H](CN2[C@H](C)COC[C@H]2C)CN1` [Example 76, (S)-1-(2-((2R,5R)-2-(((3R,5R)-3,5-dimethylmorpholino)methyl)-5-methylpiperazin-1-yl)acetyl)-7-(4-fluorobenzyl)-2-methyl-N-(tetrahydro-2H-pyran-4-yl)-2,3-dihydro-1H-pyrido[2,3-b][1,4]oxazine-6-carboxamide], the results for the 50% inhibitory concentration (IC50) in experiment [1], in experiment [2] and in experiment [3] were 0.15 nM, 0.28 nM and 4.4 nM, respectively.
Regarding `C[C@@H]1CN(CC(=O)N2c3cc(Cc4ccc(F)cc4)c(C(=O)NCCN(C)C)nc3OC[C@@H]2C)[C@@H](CN2[C@H](C)COC[C@H]2C)CN1` [Compound 97, (S)—N-(2-(dimethylamino)ethyl)-1-(2-((2R,5R)-2-(((3R,5R)-3,5-dimethylmorpholino)methyl)-5-methylpiperazin-1-yl)acetyl)-7-(4-fluorobenzyl)-2-methyl-2,3-dihydro-1H-pyrido[2,3-b][1,4]oxazine-6-carboxamide], the values for the IC50 in experiment [1], in experiment [2] and in experiment [3] were 0.27 nM, 0.51 nM and 12.5 nM, respectively.
For `C[C@@H]1CN(CC(=O)N2c3cc(Cc4ccc(F)cc4)c(NC(=O)C4CC4)nc3OC[C@@H]2C)[C@@H](CN2[C@H](C)COC[C@H]2C)CN1` [Compound 119, N—((S)-1-(2-((2R,5R)-2-(((3R,5R)-3,5-dimethylmorpholino)methyl)-5-methylpiperazin-1-yl)acetyl)-7-(4-fluorobenzyl)-2-methyl-2,3-dihydro-1H-pyrido[2,3-b][1,4]oxazin-6-yl)cyclopropanecarboxamide] the same measures were 0.2 nM, 0.35 nM and 4.4 nM.
Take `C[C@@H]1CN(CC(=O)N2c3cc(Cc4ccc(F)cc4)cnc3OC[C@@H]2C2CC2)[C@@H](CN2CCOC[C@H]2C)CN1` [Compound 26, 1-((S)-2-cyclopropyl-7-(4-fluorobenzyl)-2,3-dihydro-1H-pyrido[2,3-b][1,4]oxazin-1-yl)-2-((2R,5R)-5-methyl-2-(((R)-3-methylmorpholino)methyl)piperazin-1-yl)ethan-1-one]: the IC50 in experiment [1] was 0.48 nM; in experiment [2], 1.13 nM; in experiment [3], 16 nM.
For `C[C@@H]1CN(CC(=O)N2c3cc(Cc4ccc(F)cc4)c(CO)nc3OC[C@@H]2C)[C@@H](CN2CCOCC23CCC3)CN1` [Compound 56, 2-((2R,5R)-2-((8-oxa-5-azaspiro[3.5]nonan-5-yl)methyl)-5-methylpiperazin-1-yl)-1-((S)-7-(4-fluorobenzyl)-6-(hydroxymethyl)-2-methyl-2,3-dihydro-1H-pyrido[2,3-b][1,4]oxazin-1-yl)ethan-1-one] the same measures were 1 nM, 2.2 nM and 30 nM.

(Values after patent US12583866B2, “Pyrido[2,3-b][1,4]oxazines or tetrahydropyrido[2,3-b][1,4]oxazepines as IAP antagonists” (BEIGENE, LTD., priority 2020, dated 2026).)
